Key:
[1] = tested on: Phaeosphaeria nodorum (Synonym: Septoria nodorum); assay: Test on the preventive effect against wheat glume blotch; assay type: in vivo; conditions: Parastagonospora nodorum, 144 h, 5 ml per pot, wheat 1.3-leaf stage, 2 days inoculation chamber then 6 days at 20° C.; for pest or weed control at 500 µg/mL: test solution A 500 ppm
Description: Compounds of the present invention were dissolved in a solvent for emulsion (a mixture of Sorpol (registered trademark) 3005XL (manufactured by Toho Chemical Industry Co., Ltd.): N-methylpyrrolidone: Solvesso (registered trademark) 200 (manufactured by ExxonMobil Chemical) in a ratio of 1:5:2) to prepare 20 wt % emulsifiable concentrates. Then, distilled water was added to dilute the emulsifiable concentrates to the prescribed concentration (500 ppm), and the obtained solutions were used in the following the Test Examples 1 to 8. Wheat (varieties: Haruyutaka) was seeded in 90 cm^3 plastic pot, and at 1.3-leaf stage, 5 ml per pot of test solution A of the compounds of the present invention was applied. One day after treatment, a suspension of conidium of Phaeosphaeria nodorum (Synonym: Septoria nodorum) was sprayed to the wheat, and the pot was left in the inoculation chamber at 20° C. under humidity of 100% RH for 2 days. Then, the pot was placed in an air-conditioned greenhouse (20° C.) for 6 days. The proportion of the formed lesion in the inoculated leaves were measured to calculate the control value in accordance with the same formula as in the Test Example 1. The test was carried out in duplicate.

Botrytis cinerea [2] = assay: Test on the preventive effect against cucumber gray mold (spore inoculation); assay type: in vivo; conditions: 72 h, 5 ml per pot, cucumber cut leaves, conidium inoculation, 3 days at 20° C.; for pest or weed control at 500 µg/mL: test solution A 500 ppm
Description: Compounds of the present invention were dissolved in a solvent for emulsion (a mixture of Sorpol (registered trademark) 3005XL (manufactured by Toho Chemical Industry Co., Ltd.): N-methylpyrrolidone: Solvesso (registered trademark) 200 (manufactured by ExxonMobil Chemical) in a ratio of 1:5:2) to prepare 20 wt % emulsifiable concentrates. Then, distilled water was added to dilute the emulsifiable concentrates to the prescribed concentration (500 ppm), and the obtained solutions were used in the following the Test Examples 1 to 8. Cucumber (varieties: Sagami Hanjiro) was seeded in 90 cm^3 plastic pot, and at the cotyledon stage, 5 ml per pot of test solution A of the compounds of the present invention was applied. After drying in air, the treated leaves were cut and transferred in plastic containers. 30 μl of a mixture of a suspension of conidium of Botrytis cinerea and a dissolved PDA medium in a ratio of 1:1 was dropped on each treated leaf and inoculated. After the inoculation, the plastic containers were placed in 20° C. with humid conditions for 3 days, and the proportion of the formed lesion in the inoculated leaves were counted to calculate the control value in accordance with the same formula as in the Test Example 1. The test was carried out in duplicate.

[3] = tested on: Erysiphe polygoni (synonym: Erysiphe betae); assay: Test on the preventive effect against cucumber powdery mildew; assay type: in vivo; conditions: 216 h, 5 ml per pot sprayed, cucumber cotyledon stage, 9 days after inoculation; for pest or weed control at 500 µg/mL: test solution A 500 ppm
Description: Compounds of the present invention were dissolved in a solvent for emulsion (a mixture of Sorpol (registered trademark) 3005XL (manufactured by Toho Chemical Industry Co., Ltd.): N-methylpyrrolidone: Solvesso (registered trademark) 200 (manufactured by ExxonMobil Chemical) in a ratio of 1:5:2) to prepare 20 wt % emulsifiable concentrates. Then, distilled water was added to dilute the emulsifiable concentrates to the prescribed concentration (500 ppm), and the obtained solutions were used in the following the Test Examples 1 to 8. Cucumber (varieties: Sagami Hanjiro) was seeded in 90 cm^3 plastic pot, and at the cotyledon stage, 5 ml per pot of test solution A of the compounds of the present invention was sprayed. After drying in air, the pot was placed in an air-conditioned greenhouse (20° C.), and a suspension of conidium of Erysiphe polygoni (synonym: Erysiphe betae) was sprayed. After the pot were replaced at the same temperature for 9 days, the proportion of the formed lesion in the inoculated leaves were counted to calculate the control value in accordance with the following formula. The test was carried out in duplicate. Control value=[1−(lesion area ratio in treated plot/lesion are a ratio in non-treated plot)]×100

Sclerotinia sclerotiorum = assay: Test on the preventive effect against cucumber stem rot; assay type: in vivo; conditions: 48 h, 5 ml per pot, agar block inoculation, 2 days at 20° C.; for pest or weed control at 500 µg/mL: test solution A 500 ppm
Description: (§1) Compounds of the present invention were dissolved in a solvent for emulsion (a mixture of Sorpol (registered trademark) 3005XL (manufactured by Toho Chemical Industry Co., Ltd.): N-methylpyrrolidone: Solvesso (registered trademark) 200 (manufactured by ExxonMobil Chemical) in a ratio of 1:5:2) to prepare 20 wt % emulsifiable concentrates. Then, distilled water was added to dilute the emulsifiable concentrates to the prescribed concentration (500 ppm), and the obtained solutions were used in the following the Test Examples 1 to 8. Cucumber (varieties: Sagami Hanjiro) was seeded in 90 cm^3 plastic pot, and at the cotyledon stage, 5 ml per pot of test solution A of the compounds of the present invention was applied. After drying in air, the pot was transferred in a plastic container, and an agar blocks (diameter: 5 mm) containing Sclerotinia sclerotiorum which was preliminarily cultivated in a PDA medium was inoculated to the seed leaves of the cucumber treated with the solution. After the inoculation, the plastic container was covered with a plastic sheet, and placed at 20° C. and humidified for 2 days, thus the proportion of the formed lesion in the inoculated leaves were measured to calculate the control value in accordance with the same formula as in the Test Example 1. The test was carried out in duplicate.

[4] = tested on: Blumeria graminis f. sp. tritici; assay: Test on the preventive effect against wheat powdery mildew; assay type: in vivo; conditions: 168 h, 5 ml per pot, wheat 1.3-leaf stage, 7 days after inoculation; for pest or weed control at 500 µg/mL: test solution A 500 ppm
Description: Compounds of the present invention were dissolved in a solvent for emulsion (a mixture of Sorpol (registered trademark) 3005XL (manufactured by Toho Chemical Industry Co., Ltd.): N-methylpyrrolidone: Solvesso (registered trademark) 200 (manufactured by ExxonMobil Chemical) in a ratio of 1:5:2) to prepare 20 wt % emulsifiable concentrates. Then, distilled water was added to dilute the emulsifiable concentrates to the prescribed concentration (500 ppm), and the obtained solutions were used in the following the Test Examples 1 to 8. Wheat (varieties: Norin 61) was seeded in 90 cm^3 plastic pot, and at the 1.3-leaf stage, 5 ml per pot of test solution A of the compounds of the present invention were applied. One day after treatment, the pot was placed in an air-conditioned greenhouse (20° C.), and conidium of Blumeria graminis f. sp. tritici was inoculated to the wheat. 7 days after, the proportion of the formed lesion in the inoculated leaves were measured to calculate the control value in accordance with the same formula as in the Test Example 1. The test was carried out in duplicate.

Botrytis cinerea [5] = assay: Test on the preventive effect against cucumber gray mold (mycelium inoculation); assay type: in vivo; conditions: 48 h, 5 ml per pot, cucumber cotyledon, agar block inoculation, 2 days at 20° C.; for pest or weed control at 500 µg/mL: test solution A 500 ppm
Description: as §1, with “applied. On the next day,” for “applied. After drying in air,”, “containing Botrytis cinerea” for “containing Sclerotinia sclerotiorum”, “inoculated on” for “inoculated to”, “the cotyledon” for “the seed leaves”, “sheet, then” for “sheet, and”, “2 days. Thus” for “2 days, thus”

[6] = tested on: Southern root-knot nematode (Meloidogyne incoqnita); assay: Insecticidal test against Southern root-knot nematode (eggs, 96 well plate); assay type: in vivo; conditions: 96 h, test solution B 100 ppm, 10 μl per well, 25° C. dark, 4 days after treatment, read-out: efficacy (unhatched eggs + inactive larvae relative to non-treated)
Description: (§2) Compounds of the present invention were dissolved in dimethyl sulfoxide to prepare 1 wt % solutions. Then, distilled water was added to dilute the solutions to the prescribed concentration (100 ppm), and the obtained solutions were used in the following the Test Examples 9 to 12. 60 μl of a potato dextrose 1% agar medium was added to each well of a 96 well plate, and 30 μl of sterilized water containing eggs of Southern root-knot nematode (Meloidogyne incoqnita) (10 eggs/3 μl) was added to each well. Further, 10 μl per well of test solution B of the compounds of the present invention was added, and the plate was left at rest at 25° C. under dark conditions.

[7] = tested on: Barber pole worm (Haemonchus contortus); assay: Insecticidal test against Barber pole worm (eggs, 96 well plate); assay type: in vivo; conditions: 96 h, test solution B 100 ppm, 10 μl per well, 25° C. dark, 4 days after treatment, read-out: efficacy (unhatched eggs and inactive larvae relative to non-treated)
Description: as §2, with “Barber pole worm (Haemonchus contortus)” for “Southern root-knot nematode (Meloidogyne incoqnita)”

CC(NC(=O)c1cccnc1Cl)C(SCC(F)(F)F)c1ncc(C#CC2CC2)cc1Cl (stereo not shown) [3-032]
pest or weed control at 500 µg/mL [1]: ≥ 70%
pest or weed control at 500 µg/mL (Botrytis cinerea [2]): ≥ 70%
pest or weed control at 500 µg/mL [3]: ≥ 70%
pest or weed control at 500 µg/mL (Sclerotinia sclerotiorum): ≥ 70%

CCOC(c1ncc(C#CC2CC2)cc1Cl)C(C)NC(=O)c1ccccc1C(F)(F)F (stereo not shown) [1-026]
pest or weed control at 500 µg/mL [1]: ≥ 70%
pest or weed control at 500 µg/mL (Botrytis cinerea [2]): ≥ 70%
pest or weed control at 500 µg/mL [4]: ≥ 70%
pest or weed control at 500 µg/mL (Botrytis cinerea [5]): ≥ 70%
pest or weed control at 500 µg/mL [3]: ≥ 70%
pest or weed control at 500 µg/mL (Sclerotinia sclerotiorum): ≥ 70%

Cn1cc(C(=O)NCC(C#N)c2ncc(C#CC3CC3)cc2Cl)c(C(F)F)n1 (stereo not shown) [8-021, N-[2-[3-chchloro-5-(cyclopropylethynyl)pyridin-2-yl]-2-cyanoethyl]-3-difluoromethyl-1-methyl-1H-pyrazole-4-carboxamide]
melting point: 43 to 46 °C

CCOC(c1ncc(C#CC2CC2)cc1Cl)C(C)NC(=O)c1cccnc1C(F)F (stereo not shown) [3-022]
pest or weed control at 100 ppm ([1]; 100 ppm solution (symbol *)): ≥ 70%
pest or weed control at 100 ppm (Botrytis cinerea [2]; 100 ppm solution (symbol *)): ≥ 70%
pest or weed control at 100 ppm ([4]; 100 ppm solution (symbol *)): ≥ 70%
pest or weed control at 100 ppm (Botrytis cinerea [5]; 100 ppm solution (symbol *)): ≥ 70%
pest or weed control at 100 ppm ([3]; 100 ppm solution (symbol *)): ≥ 70%
pest or weed control at 100 ppm (Sclerotinia sclerotiorum; 100 ppm solution (symbol *)): ≥ 70%

CC(NC(=O)c1cccnc1C(F)(F)F)C(SCC(F)(F)F)c1ncc(C#CC2CC2)cc1Cl (stereo not shown) [3-034a]
melting point: 65 to 66 °C

CC(NC(=O)c1ccccc1C(F)(F)F)C(SCC(F)(F)F)c1ncc(C#CC2CC2)cc1Cl (stereo not shown) [1-032]
pest or weed control at 500 µg/mL [1]: ≥ 70%
pest or weed control at 500 µg/mL [3]: ≥ 70%

O=C(NCC(F)(F)c1ncc(C#CC2CC2)cc1Cl)c1ncccc1C(F)(F)F [2-001]
melting point: 157 to 158 °C

O=C(NCC(CC(F)(F)F)c1ncc(C#CC2CC2)cc1Cl)c1ccccc1C(F)(F)F (stereo not shown) [1-010]
pest or weed control at 500 µg/mL [1]: ≥ 70%
pest or weed control at 100 µg/mL [6]: ≥ 50%
pest or weed control at 100 µg/mL [7]: ≥ 50%
pest or weed control at 500 µg/mL (Botrytis cinerea [2]): ≥ 70%
pest or weed control at 500 µg/mL [3]: ≥ 70%
pest or weed control at 500 µg/mL (Sclerotinia sclerotiorum): ≥ 70%

CC(NC(=O)c1ccccc1C(F)(F)F)C(OCC(F)(F)F)c1ncc(C#CC2CC2)cc1Cl (stereo not shown) [1-027]
pest or weed control at 500 µg/mL [1]: ≥ 70%
pest or weed control at 500 µg/mL (Botrytis cinerea [2]): ≥ 70%
pest or weed control at 500 µg/mL [4]: ≥ 70%
pest or weed control at 500 µg/mL (Botrytis cinerea [5]): ≥ 70%
pest or weed control at 500 µg/mL [3]: ≥ 70%
pest or weed control at 500 µg/mL (Sclerotinia sclerotiorum): ≥ 70%

CC(F)(CNC(=O)c1cccnc1C(F)F)c1ncc(C#CC2CC2)cc1Cl (stereo not shown) [3-038, N-[2-[3-chloro-5-(cyclopropylethynyl)pyridin-2-yl]-2-fluoropropyl]-2-(difluoromethyl)nicotinamide]
melting point: 113 to 115 °C

Cn1cc(C(=O)NCC(F)(F)c2ncc(C#CCF)cc2Cl)c(C(F)F)n1 [8-005, N-[2-[3-chloro-5-(3-fluoro-1-propynyl)pyridin-2-yl]-2,2-difluoroethyl]-3-difluoromethyl-1-methyl-1H-pyrazole-4-carboxamide]
melting point: 110 to 111 °C

CC(NC(=O)c1cccnc1C(F)(F)F)C(SCC(F)(F)F)c1ncc(C#CC2CC2)cc1Cl (stereo not shown) [3-034]
pest or weed control at 500 µg/mL [1]: ≥ 70%
pest or weed control at 500 µg/mL (Botrytis cinerea [2]): ≥ 70%
pest or weed control at 500 µg/mL (Botrytis cinerea [5]): ≥ 70%
pest or weed control at 500 µg/mL [3]: ≥ 70%
pest or weed control at 500 µg/mL (Sclerotinia sclerotiorum): ≥ 70%
